Laboratory results reported in ChEMBL document CHEMBL1150806, “A new macrocyclic trichothecene, 12,13-deoxyroridin E, produced by the marine-derived fungus Myrothecium roridum collected in Palau” (J Nat Prod, 2001).
≈ marks a conversion by molar mass, not a printed value.

Legend:
[1] = system: L1210; test: Cytotoxicity against mouse L1210 cells after 72 hrs by WST8 assay; assay type: functional, cell-based
[2] = system: HL-60; test: Cytotoxicity against human HL60 cells after 72 hrs by WST8 assay; assay type: functional, cell-based

| Structure (SMILES) | IC50 ([1]; Mus musculus, L1210, 72 h, read-out: IC50) [ng/mL] | IC50 ([2]; Homo sapiens, HL-60, 72 h, read-out: IC50) [ng/mL] | IC50 ([1]; l1210) [ng/mL] | IC50 ([2]; hl-60) [ng/mL] |
| --- | --- | --- | --- | --- |
| C=C1[C@H]2C[C@H]3OC(=O)/C=C\C=C\[C@H]([C@@H](C)O)OCC/C(C)=C/C(=O)OC[C@@]4(CCC(C)=C[C@H]4O2)[C@]13C | 1.5 (≈ 3.01 nM) | 25 (≈ 50.1 nM) |  |  |
| CC1=C[C@H]2O[C@@H]3C[C@H]4OC(=O)/C=C\C=C\[C@H]([C@@H](C)O)OCC/C(C)=C/C(=O)OC[C@@]2(CC1)[C@]4(C)[C@]31CO1 [RORIDIN E] |  |  | 0.2 (≈ 0.389 nM) | 0.3 (≈ 0.583 nM) |
| CC1=C[C@H]2O[C@@H]3C[C@H]4OC(=O)/C=C\C=C\C(=O)OCC[C@@H](C)[C@H](O)C(=O)OC[C@@]2(CC1)[C@]4(C)[C@]31CO1 [VERRUCARIN A] |  |  | 0.35 (≈ 0.696 nM) | 0.2 (≈ 0.398 nM) |
| CC1=C[C@H]2O[C@@H]3C[C@H]4OC(=O)/C=C\C=C\C(=O)OCC/C(C)=C/C(=O)OC[C@@]2(CC1)[C@]4(C)[C@]31CO1 [VERRUCARIN J] |  |  | 2.5 (≈ 5.16 nM) | 2.5 (≈ 5.16 nM) |
